Assay results taken from ChEMBL document CHEMBL4270483, “Effect of Hops Derived Prenylated Phenols on TNF-α Induced Barrier Dysfunction in Intestinal Epithelial Cells” (J Nat Prod, 2017).
Activity calls are given as the source filed them. No cut-off for these calls is given here.

Key:
Caco-2 [1] = assay: Cytotoxicity in human Caco2 cells assessed as reduction in ATP metabolism at 1 to 100 uM incubated for 24 hrs by cell-titer-Glo luminescent cell viability assay; assay type: ADME, cell-based; conditions: caco-2, 24 h
Caco-2 [2] = assay: Effect on barrier function in human Caco2 cells assessed as LY transport at 10 uM pre-treated on apical side for 1 hr and measured after 48 hrs; assay type: ADME, cell-based; conditions: caco-2, 48 h
Caco-2 [3] = assay: Increase in transepithelial electrical resistance in human Caco2 cells at 10 uM pre-treated on apical side and measured after 36 to 72 hrs; assay type: functional, cell-based
Caco-2 [4] = assay: Inhibition of TNFalpha induced barrier dysfunctionin human Caco2 cells assessed as increase in transepithelial electrical resistance at 10 uM pre-treated on apical side for 1 hr before TNFalpha stimulation on basolateral side for 72 hrs by cellZScope monitoring device based assay; assay type: functional, cell-based
Caco-2 [5] = assay: Inhibition of TNFalpha induced barrier dysfunctionin human Caco2 cells assessed as increase in transepithelial electrical resistance at 10 uM treated on apical side for 1 hr post TNFalpha stimulation on basolateral side for 24 hrs and measured after 72 hrs by cellZScope monitoring device based assay; assay type: functional, cell-based
Caco-2 [6] = assay: Inhibition of TNFalpha induced barrier dysfunctionin human Caco2 cells assessed as prevention of morphological changes in ZO1 protein at 10 uM pre-treated on apical side for 1 hr before TNFalpha stimulation on basolateral side for 48 hrs by confocal laser scanning microscopy; assay type: functional, cell-based
Caco-2 [7] = assay: Cytotoxicity in human Caco2 cells assessed as reduction in ATP metabolism at 50 to 100 uM incubated for 24 hrs by cell-titer-Glo luminescent cell viability assay; assay type: ADME, cell-based; conditions: caco-2, 24 h
Caco-2 [8] = assay: Stimulation of growth in human Caco2 cells assessed as […] in ATP metabolism at 10 uM incubated for 24 hrs by cell-titer-Glo luminescent cell viability assay; assay type: functional, cell-based
Caco-2 [9] = assay: Cytotoxicity in human Caco2 cells assessed as reduction in ATP metabolism at 100 uM incubated for 24 hrs by cell-titer-Glo luminescent cell viability assay; assay type: ADME, cell-based; conditions: caco-2, 24 h
Caco-2 [10] = assay: Cytotoxicity in human Caco2 cells assessed as reduction in ATP metabolism at 1 to 50 uM incubated for 24 hrs by cell-titer-Glo luminescent cell viability assay; assay type: ADME, cell-based; conditions: caco-2, 24 h

SMILES	Activity (Caco-2 [1])	Activity (Caco-2 [2])	Activity (Caco-2 [3])	inhibition (Caco-2 [4])	inhibition (Caco-2 [5])	inhibition (Caco-2 [6])	Activity (Caco-2 [7]) [%]	Activity (Caco-2 [8])	Activity (Caco-2 [9]) [%]	Activity (Caco-2 [10])
CC(C)=CCc1c(O)cc(O)c2c1O[C@H](c1ccc(O)cc1)CC2=O	Non-Toxic	Non-Toxic	Active	Active	Active	Active				
COc1cc(O)c(CC=C(C)C)c(O)c1C(=O)/C=C/c1ccc(O)cc1 [XANTHOHUMOL]		Non-Toxic	Active	inactive	inactive	inactive	55.3	Active		
CC(C)=CCc1c(O)cc2c(c1O)C(=O)CC(c1ccc(O)cc1)O2 (centres undefined)		Non-Toxic	Active	Active	inactive				18	Non-Toxic
